In patent US9452986B2, “6-heteroaryloxy- or 6-aryloxy-quinoline-2-carboxamides and method of use” (AbbVie Inc., priority 2014, dated 2016) one finds IC50 data, which are given here for 35 molecules.

SMILES strings stand for the structures. Read-outs that look alike come from different tables or passages of the source.

This assay has as its target recombinant human Nav1.7 (Homo sapiens (Human), UniProt Q15858). Nature of the assay: FRET-based membrane potential assay, recombinant human sodium channel Nav1.7. Particulars: read-out: FRET-Membrane Potential Nav1.7 IC50. The assay is classed as cell-based. The essentials:
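Channel activation used veratridine at its EC80, set by a dilution curve each experiment, together with Leiurus scorpion venom, added 3 min after compound. Membrane-potential ratio signals from FLIPR Tetra in HEPES-buffered HBSS were fitted to a four-parameter Hill equation for percent inhibition and IC50.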

Where [1] appears, read: HEK293 cells stably expressing recombinant human Nav1.7, veratridine + scorpion venom depolarization.

Sequence of recombinant human Nav1.7 (Q15858 whole entry): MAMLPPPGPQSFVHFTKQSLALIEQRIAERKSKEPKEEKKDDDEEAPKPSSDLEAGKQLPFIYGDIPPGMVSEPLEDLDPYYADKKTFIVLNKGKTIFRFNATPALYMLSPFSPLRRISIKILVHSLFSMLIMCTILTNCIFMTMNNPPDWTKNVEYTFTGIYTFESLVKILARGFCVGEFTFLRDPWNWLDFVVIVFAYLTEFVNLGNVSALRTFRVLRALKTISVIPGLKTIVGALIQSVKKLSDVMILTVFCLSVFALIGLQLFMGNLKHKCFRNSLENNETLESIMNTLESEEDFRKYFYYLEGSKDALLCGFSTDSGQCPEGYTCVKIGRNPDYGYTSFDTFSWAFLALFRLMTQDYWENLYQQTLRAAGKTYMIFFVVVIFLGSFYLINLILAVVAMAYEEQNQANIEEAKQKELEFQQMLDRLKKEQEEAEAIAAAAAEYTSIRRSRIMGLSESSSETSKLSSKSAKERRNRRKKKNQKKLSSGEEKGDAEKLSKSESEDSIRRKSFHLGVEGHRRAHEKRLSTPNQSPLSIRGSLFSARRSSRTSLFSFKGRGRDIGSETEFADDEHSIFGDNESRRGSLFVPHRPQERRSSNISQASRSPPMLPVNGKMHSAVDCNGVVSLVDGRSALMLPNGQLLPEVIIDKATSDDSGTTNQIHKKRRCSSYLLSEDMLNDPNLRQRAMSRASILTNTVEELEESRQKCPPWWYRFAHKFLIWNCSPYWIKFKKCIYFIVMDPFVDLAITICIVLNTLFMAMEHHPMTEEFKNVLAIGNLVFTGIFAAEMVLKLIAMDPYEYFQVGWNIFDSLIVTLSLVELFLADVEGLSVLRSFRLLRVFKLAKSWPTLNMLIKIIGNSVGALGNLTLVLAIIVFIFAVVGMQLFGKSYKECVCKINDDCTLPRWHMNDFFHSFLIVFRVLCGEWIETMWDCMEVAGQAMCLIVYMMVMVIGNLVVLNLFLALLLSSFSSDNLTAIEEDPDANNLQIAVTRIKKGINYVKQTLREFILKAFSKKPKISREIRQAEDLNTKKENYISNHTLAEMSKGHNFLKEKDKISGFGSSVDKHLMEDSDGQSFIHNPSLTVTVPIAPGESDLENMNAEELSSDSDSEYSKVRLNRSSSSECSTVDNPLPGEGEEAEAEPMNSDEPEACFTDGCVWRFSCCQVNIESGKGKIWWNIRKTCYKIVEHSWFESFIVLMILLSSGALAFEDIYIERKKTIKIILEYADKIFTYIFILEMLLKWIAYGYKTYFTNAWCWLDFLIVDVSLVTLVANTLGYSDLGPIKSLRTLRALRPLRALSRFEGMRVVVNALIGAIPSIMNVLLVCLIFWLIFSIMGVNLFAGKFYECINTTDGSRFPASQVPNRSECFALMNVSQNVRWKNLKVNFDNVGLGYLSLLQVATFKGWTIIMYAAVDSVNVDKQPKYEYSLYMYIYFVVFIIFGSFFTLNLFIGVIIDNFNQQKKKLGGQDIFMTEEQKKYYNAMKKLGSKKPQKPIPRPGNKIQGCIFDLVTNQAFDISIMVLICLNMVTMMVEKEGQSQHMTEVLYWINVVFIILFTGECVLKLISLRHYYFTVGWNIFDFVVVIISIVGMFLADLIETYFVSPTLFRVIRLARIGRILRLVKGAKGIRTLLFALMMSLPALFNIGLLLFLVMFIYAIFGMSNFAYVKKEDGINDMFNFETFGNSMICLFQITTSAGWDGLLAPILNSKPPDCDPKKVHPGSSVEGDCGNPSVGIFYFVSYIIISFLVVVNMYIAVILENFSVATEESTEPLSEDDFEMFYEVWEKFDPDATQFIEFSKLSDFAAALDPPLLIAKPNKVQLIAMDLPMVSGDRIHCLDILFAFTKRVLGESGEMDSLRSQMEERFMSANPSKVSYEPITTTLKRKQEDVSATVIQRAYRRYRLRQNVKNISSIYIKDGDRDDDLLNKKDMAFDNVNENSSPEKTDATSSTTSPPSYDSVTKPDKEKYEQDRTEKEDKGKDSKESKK

In the case of `N[C@H]1CC[C@@H]2CN(C(=O)c3ccc4cc(Oc5ccc(C(F)(F)F)cn5)ccc4n3)C[C@@H]21` [Example 248, [(3aR,4S,6aS)-4-aminohexahydrocyclopenta[c]pyrrol-2(1H)-yl](6-{[5-(trifluoromethyl)pyridin-2-yl]oxy}quinolin-2-yl)methanone], the IC50 under setting [1] is 17.3 µM.

With `CC(C)NC(=O)CN(C)C(=O)c1ccc2cc(Oc3ccc(C(F)(F)F)cn3)ccc2n1` [Example 454, N-[2-(isopropylamino)-2-oxoethyl]-N-methyl-6-{[5-(trifluoromethyl)pyridin-2-yl]oxy}quinoline-2-carboxamide], under setting [1], the 50% inhibitory concentration (IC50) came out at 3.14 µM.

Take `O=C(NN1CCOCC1)c1ccc2cc(Oc3ccc(C(F)(F)F)cn3)ccc2n1` [Example 281, N-(morpholin-4-yl)-6-{[5-(trifluoromethyl)pyridin-2-yl]oxy}quinoline-2-carboxamide]: under setting [1], the half-inhibitory concentration (IC50) stood at 1.28 µM.

As for `CC(C)(O)CNC(=O)c1ccc2cc(Oc3ccc(C(F)F)cn3)ccc2n1` [Example 434, 6-{[5-(difluoromethyl)pyridin-2-yl]oxy}-N-(2-hydroxy-2-methylpropyl)quinoline-2-carboxamide], under setting [1], the IC50 was 5.58 µM.

On to `C[C@H]1N(C(=O)c2ccc3cc(Oc4ccc(C(F)(F)F)cn4)ccc3n2)CC1(C)C` [Example 197, (6-{[5-(trifluoromethyl)pyridin-2-yl]oxy}quinolin-2-yl)[(2R)-2,3,3-trimethylazetidin-1-yl]methanone], for which the IC50 under setting [1] turned out to be 2.72 µM.

For the molecule `Cc1cnc(Oc2ccc3nc(C(=O)NC4CCS(=O)(=O)C4)ccc3c2)nc1` (centres unmarked) [Example 161, N-(1,1-dioxidotetrahydrothiophen-3-yl)-6-[(5-methylpyrimidin-2-yl)oxy]quinoline-2-carboxamide], the IC50 is greater than 20 µM.

On to `NC(=O)[C@H]1CCCN(C(=O)c2ccc3cc(Oc4ccc(C(F)(F)F)cn4)ccc3n2)C1` [Example 325, (3S)-1-[(6-{[5-(trifluoromethyl)pyridin-2-yl]oxy}quinolin-2-yl)carbonyl]piperidine-3-carboxamide], for which the IC50 under setting [1] was 8.58 µM.

With `CC1(Oc2ccccc2)CN(C(=O)c2ccc3cc(Oc4ccc(C(F)(F)F)cn4)ccc3n2)C1` [Example 200, (3-methyl-3-phenoxyazetidin-1-yl)(6-{[5-(trifluoromethyl)pyridin-2-yl]oxy}quinolin-2-yl)methanone], under setting [1], the IC50 was greater than 20 µM.

Take `COC(=O)CS(=O)(=O)N1CCN(C(=O)c2ccc3cc(Oc4ccc(C(F)(F)F)cn4)ccc3n2)CC1` [Example 382, methyl ({4-[(6-{[5-(trifluoromethyl)pyridin-2-yl]oxy}quinolin-2-yl)carbonyl]piperazin-1-yl}sulfonyl)acetate]: the concentration for half-maximal inhibition (IC50) under setting [1] is 1.82 µM.

For `CC(CO)NC(=O)c1ccc2cc(Oc3ccc(C#N)cc3)ccc2n1` (centres unmarked) [Example 127, 6-(4-cyanophenoxy)-N-(1-hydroxypropan-2-yl)quinoline-2-carboxamide], the IC50 amounted to 4.07 µM.

As to `N#Cc1ccc(Oc2ccc3nc(C(=O)N[C@H]4CCOC4=O)ccc3c2)cc1` [Example 90, 6-(4-cyanophenoxy)-N-[(3S)-2-oxotetrahydrofuran-3-yl]quinoline-2-carboxamide], under setting [1], the IC50 is 0.368 µM.

For the molecule `CC(C)S(=O)(=O)N1CCN(C(=O)c2ccc3cc(Oc4ccc(C(F)(F)F)cn4)ccc3n2)CC1` [Example 177, [4-(isopropylsulfonyl)piperazin-1-yl](6-{[5-(trifluoromethyl)pyridin-2-yl]oxy}quinolin-2-yl)methanone], the IC50 under setting [1] worked out at 2.68 µM.

Consider `O=C(c1ccc2cc(Oc3ccc(C(F)(F)F)cn3)ccc2n1)N1CCOCC1` [Example 296, morpholin-4-yl(6-{[5-(trifluoromethyl)pyridin-2-yl]oxy}quinolin-2-yl)methanone], for which the IC50 came to 12.4 µM.

Consider `COCC1(C)CN(C(=O)c2ccc3cc(Oc4ccc(C(F)(F)F)cn4)ccc3n2)C1` [Example 199, [3-(methoxymethyl)-3-methylazetidin-1-yl](6-{[5-(trifluoromethyl)pyridin-2-yl]oxy}quinolin-2-yl)methanone], for which the IC50 is 2.55 µM.

With `N#Cc1ccc(Oc2ccc3nc(C(=O)NC(CO)CO)ccc3c2)cc1` [Example 126, 6-(4-cyanophenoxy)-N-(1,3-dihydroxypropan-2-yl)quinoline-2-carboxamide], the IC50 under setting [1] worked out at 8.76 µM.

Consider `O=C(NC1CCC(F)(F)CC1)c1ccc2cc(Oc3ccc(C(F)F)cn3)ccc2n1` [Example 437, N-(4,4-difluorocyclohexyl)-6-{[5-(difluoromethyl)pyridin-2-yl]oxy}quinoline-2-carboxamide], for which the half-maximal inhibitory concentration (IC50) under setting [1] came out at 3.17 µM.

In the case of `CCN(CC)C(=O)CCNC(=O)c1ccc2cc(Oc3ccc(C(F)(F)F)cn3)ccc2n1` [Example 453, N-[3-(diethylamino)-3-oxopropyl]-6-{[5-(trifluoromethyl)pyridin-2-yl]oxy}quinoline-2-carboxamide], the concentration for half-maximal inhibition (IC50) under setting [1] is 0.405 µM.

On to `O=C(c1ccc2cc(Oc3ccc(C(F)(F)F)cn3)ccc2n1)N1CCS(=O)(=O)CC1` [Example 227, (1,1-dioxidothiomorpholin-4-yl)(6-{[5-(trifluoromethyl)pyridin-2-yl]oxy}quinolin-2-yl)methanone], for which, under setting [1], the IC50 was determined as 2.94 µM.

In the case of `CCOC(=O)N1CCN(C(=O)c2ccc3cc(Oc4ccc(C(F)(F)F)cn4)ccc3n2)CC1` [Example 289, ethyl 4-[(6-{[5-(trifluoromethyl)pyridin-2-yl]oxy}quinolin-2-yl)carbonyl]piperazine-1-carboxylate], the concentration for half-maximal inhibition (IC50) under setting [1] stood at 3.91 µM.

As to `N#Cc1cnc(Oc2ccc3nc(C(=O)N4CCNCC4)ccc3c2)cn1` [Example 372, 5-{[2-(piperazin-1-ylcarbonyl)quinolin-6-yl]oxy}pyrazine-2-carbonitrile], under setting [1], the 50% inhibitory concentration (IC50) is greater than 20 µM.

`N#Cc1ccc(Oc2ccc3nc(C(=O)NC4CCS(=O)(=O)C4)ccc3c2)nc1` (centres unmarked) [Example 158, 6-[(5-cyanopyridin-2-yl)oxy]-N-(1,1-dioxidotetrahydrothiophen-3-yl)quinoline-2-carboxamide]: the IC50 under setting [1] was greater than 20 µM.

Consider `CC(C)[C@@H]1CN(C(=O)c2ccc3cc(Oc4ccc(C(F)(F)F)cn4)ccc3n2)CCN1` [Example 263, [(3R)-3-isopropylpiperazin-1-yl](6-{[5-(trifluoromethyl)pyridin-2-yl]oxy}quinolin-2-yl)methanone], for which, under setting [1], the IC50 is 0.402 µM.

Regarding `CC(C)C(O)CNC(=O)c1ccc2cc(Oc3ccc(C#N)cc3)ccc2n1` (centres unmarked) [Example 135, 6-(4-cyanophenoxy)-N-(2-hydroxy-3-methylbutyl)quinoline-2-carboxamide], the IC50 came out at 0.688 µM.

`O=C(c1ccc2cc(Oc3ccc(C(F)(F)F)cn3)ccc2n1)N1CC2(CNC2)C1` [Example 157, 2,6-diazaspiro[3.3]hept-2-yl(6-{[5-(trifluoromethyl)pyridin-2-yl]oxy}quinolin-2-yl)methanone]: under setting [1], the IC50 is greater than 20 µM.

For `O=C1CN(C(=O)c2ccc3cc(Oc4ccc(C(F)(F)F)cn4)ccc3n2)CCN1` [Example 172, 4-[(6-{[5-(trifluoromethyl)pyridin-2-yl]oxy}quinolin-2-yl)carbonyl]piperazin-2-one], the IC50 under setting [1] stood at 10.5 µM.

As for `O=C(c1ccc2cc(Oc3ccc(C(F)(F)F)cn3)ccc2n1)N1C[C@H](F)C[C@@H]1c1cc(F)ccc1F` [Example 180, [(2R,4R)-2-(2,5-difluorophenyl)-4-fluoropyrrolidin-1-yl](6-{[5-(trifluoromethyl)pyridin-2-yl]oxy}quinolin-2-yl)methanone], the IC50 under setting [1] amounted to 0.675 µM.

On to `CS(=O)(=O)NC(=O)c1ccc2cc(Oc3ccc(C(F)(F)F)cn3)ccc2n1` [Example 577, N-(methylsulfonyl)-6-{[5-(trifluoromethyl)pyridin-2-yl]oxy}quinoline-2-carboxamide], for which the IC50 under setting [1] was 10.1 µM.

In the case of `O=C(c1ccc2cc(Oc3ccc(C(F)(F)F)cn3)ccc2n1)N1C[C@@H]2C[C@@H](CO)[C@H]1C2` [Example 257, [(1R,4R,6R)-6-(hydroxymethyl)-2-azabicyclo[2.2.1]hept-2-yl](6-{[5-(trifluoromethyl)pyridin-2-yl]oxy}quinolin-2-yl)methanone], the IC50 under setting [1] came to 10.6 µM.

Turning to `O=C(NCC(=O)N1C[C@H](O)[C@@H](O)C1)c1ccc2cc(Oc3ccc(C(F)(F)F)cn3)ccc2n1` [Example 562, N-{2-[(3S,4S)-3,4-dihydroxypyrrolidin-1-yl]-2-oxoethyl}-6-{[5-(trifluoromethyl)pyridin-2-yl]oxy}quinoline-2-carboxamide], the IC50 under setting [1] was greater than 20 µM.

Take `N#CCCCNC(=O)c1ccc2cc(Oc3ccc(C(F)(F)F)cn3)ccc2n1` [Example 595, N-(3-cyanopropyl)-6-{[5-(trifluoromethyl)pyridin-2-yl]oxy}quinoline-2-carboxamide]: the IC50 under setting [1] stood at 1.13 µM.

In the case of `N#CCCN1CCN(C(=O)c2ccc3cc(Oc4ccc(C(F)(F)F)cn4)ccc3n2)CC1` [Example 473, 3-{4-[(6-{[5-(trifluoromethyl)pyridin-2-yl]oxy}quinolin-2-yl)carbonyl]piperazin-1-yl}propanenitrile], under setting [1], the half-inhibitory concentration (IC50) was 16.2 µM.

Take `N#Cc1ccc(Oc2ccc3nc(C(=O)N[C@@H]4CCC[C@@H]4O)ccc3c2)cc1` [Example 131, 6-(4-cyanophenoxy)-N-[(1R,2S)-2-hydroxycyclopentyl]quinoline-2-carboxamide]: the half-inhibitory concentration (IC50) is 1.15 µM.

For the molecule `CS(=O)(=O)NC1CCN(C(=O)c2ccc3cc(Oc4ccc(C(F)(F)F)cn4)ccc3n2)CC1` [Example 408, N-{1-[(6-{[5-(trifluoromethyl)pyridin-2-yl]oxy}quinolin-2-yl)carbonyl]piperidin-4-yl}methanesulfonamide], the IC50 under setting [1] was greater than 20 µM.

Consider `O=C(c1ccc2cc(Oc3ccc(C(F)(F)F)cn3)ccc2n1)N1CCN(S(=O)(=O)N2CCCCC2)CC1` [Example 184, [4-(piperidin-1-ylsulfonyl)piperazin-1-yl](6-{[5-(trifluoromethyl)pyridin-2-yl]oxy}quinolin-2-yl)methanone], for which, under setting [1], the IC50 was determined as 0.923 µM.

As for `CC(=O)NCCCNC(=O)c1ccc2cc(Oc3ccc(C(F)(F)F)cn3)ccc2n1` [Example 613, N-(3-acetamidopropyl)-6-{[5-(trifluoromethyl)pyridin-2-yl]oxy}quinoline-2-carboxamide], under setting [1], the 50% inhibitory concentration (IC50) was found to be 2.21 µM.
